# Data published in the METLIN SMRT retention time set (Domingo-Almenara et al. 2019).
# Assay: gradient 5% acetonitrile 3 min, to 50% in 2 min, to 85% in 15 min, held 3 min, 100 µL/min
# Settings: column: Zorbax Extend-C18 2.1 x 50 mm; eluents: water / acetonitrile, 0.1% formic acid
# How it was run: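 Retention times of pure standards were taken from adduct peaks that were selected by computer and manually inspected. Over 3 months, mixtures of ~100 molecules were run by HPLC–quadrupole time-of-flight mass spectrometry in positive and negative ionization mode. The Zorbax Extend-C18 column (2.1 × 50 mm, 1.8 μm) ran at 100 μL/min in water and acetonitrile, each containing 0.1% formic acid, with 40 μL dead volume and 900 μL dwell volume.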
row,RP-LC retention time [s],Structure (SMILES)
1,909,CCCS(=O)(=O)c1nc2ccc(NS(=O)(=O)c3cc(OC)ccc3OC)cc2s1
2,934,O=C(Cn1cccc1-c1nc(-c2ccccc2)cs1)N1CCOCC1
3,805,O=C(CCCN1CCC(O)(c2cccc(C(F)(F)F)c2)CC1)c1ccc(F)cc1
4,967,CCc1nc(-c2cc(S(=O)(=O)N3CCC(C(=O)NCc4cccs4)CC3)c(C)s2)no1
5,791,CCOc1ccc(CC(=O)N2C[C@@H]3C[C@H]2C[C@@H]3NS(=O)(=O)c2cccs2)cc1
6,607,CC(C(=O)NCCN1CCCC1)n1c2ccccc2c2cnn(C)c(=O)c21 (centres undefined)
7,837,CS(=O)(=O)c1ccccc1NC(=O)C1CCCCN1S(=O)(=O)c1cccs1 (centres undefined)
8,848,CC1(C(=O)NCc2ccc(F)cc2)CN(S(C)(=O)=O)CC(=O)N1Cc1ccccc1Cl (centres undefined)
9,576,O=S(=O)(NCCCN1CCOC(c2ccccc2)C1)c1ccccc1Cl (centres undefined)
10,664,CCN(CC)C(=O)COc1ccc(NC(=O)C2CC2)cn1
11,756,CC(C)c1ccc(-c2c(N3CCN(c4ccccn4)CC3)c(=O)c2=O)cc1
12,649,O=C(O)c1ccc(N2CCN(c3ccccn3)CC2)c(NS(=O)(=O)c2ccc(F)c(F)c2)c1
13,839,Cc1ccc(NC(=O)C2CC(=O)N(c3n[nH]c4cc(Br)ccc34)C2)cc1 (centres undefined)
14,857,CC(C)C(=O)N1CC(c2nc(-c3ccc(F)cc3)no2)C2(CCOCC2)C1 (centres undefined)
15,716,CC(C)n1c(=O)sc2cc(S(=O)(=O)N3CCC(C(=O)N(C)C4CCCCC4)CC3)ccc21
16,597,COC1CCC12CCN(Cc1cccc(C#N)c1)CC2 (centres undefined)
17,755,CC(=O)N1CCc2ccc(NC(=O)Nc3ccccc3Cl)cc21
18,586,CC(NC(=O)c1ccco1)c1nc2ccccc2n1CC(=O)N1CCOCC1 (centres undefined)
19,817,CC(C)N1CCCn2cc(S(=O)(=O)NC3CCCCCC3)cc2C1=O
20,898,CC(C)(C)NC(=O)C1CCN(S(C)(=O)=O)c2cc(Cl)ccc2O1 (centres undefined)
21,584,O=C(NCCCN1CCCC1=O)c1ccc2ncnc(N3CCCCC3)c2c1
22,897,CCOC(=O)c1c(S(=O)(=O)N2CCC(C(=O)Nc3ccc(F)cc3)CC2)c(C)n(CC)c1C
23,650,CC(C)C(=O)Nc1ccc(CCc2nc3ccc(C(=O)NC4CCCC4)cc3[nH]2)cc1
24,864,COC(=O)c1nc(NC(=O)Cn2nc3c(cc2=O)CCCCC3)sc1C(C)C
25,576,O=C(c1ccc2snnc2c1)N1CCN(c2ccccn2)CC1
26,863,O=C(CN1C(=O)COc2ccccc2C1=O)c1cccc([N+](=O)[O-])c1
27,1280,Cc1sc(C)c(S(=O)(=O)N2CCc3ccccc3C2)c1-c1cc(C(F)(F)F)on1

row,RP-LC retention time [s],Structure (SMILES)
1,683,CCCN(C)c1nccn2c(=O)n(CC(=O)Nc3ccc(C)cc3)nc12
2,1310,Cc1ccc(C)c(NS(=O)(=O)c2cc(-c3nc(C(C)(C)C)cs3)cs2)c1
3,599,CCCN(CCC)CCNC(=O)C1CCCN(c2ncnc3c2nc2n3CCCCC2)C1 (centres undefined)
4,858,CC1=C(c2ccc(C)cc2)S(=O)(=O)N=C1N1CCCN(C(=O)C(C)(C)C)CC1
5,894,COc1ccc(C2C(=O)N(C3CCCCC3)CC(=O)N2Cc2ccc3c(c2)OCO3)cc1OC (centres undefined)
6,851,CCCCOc1ccc(NC(=O)Nc2ccc(N3CCCS3(=O)=O)cc2)cc1
7,856,CCn1cc(-c2ccc(C)cc2)cc1C(=O)NCCCN1CCCC1=O
8,707,O=C(CCCc1nc2cccnc2n1Cc1ccc(F)cc1)N1CCCC1
9,598,CCCCN(CC)CCNC(=O)C1CCN(c2ncnc3onc(C)c23)CC1
10,846,CCn1nccc1C(=O)Nc1cc(-c2cc3cc(OC)ccc3n2CC)[nH]n1
11,1110,O=S(=O)(c1cccc(-c2nnc(-c3ccc(F)cc3)o2)c1)N1CCCCCC1
12,837,O=C(Nc1cccc(Cl)c1)C1CCN(C(=O)C2Sc3ccccc3NC2=O)CC1 (centres undefined)
13,856,CC(C)CCNC(=O)Cn1c(=O)c2cccn2c2ccc(F)cc21
14,1050,Cc1c(C(=O)NCC(C)C)cnn1-c1ccc(-c2nc(C(C)C)no2)cn1
15,697,O=C(Nc1ccc2c(c1)OCCO2)C1CCN(C(=O)c2cccc(F)c2)CC1
16,731,COc1ccc(CNC(=O)C2CCN(C(=O)C3Sc4ccccc4NC3=O)CC2)cc1 (centres undefined)
17,879,O=C(NCc1ccccc1)c1nnc(-c2ccc(S(=O)(=O)N3CCCC3)cc2)o1
18,570,O=C(Cc1cn2cc(Br)ccc2n1)N1CCSCC1
19,790,CC1=C(c2ccc(C)c(C)c2)S(=O)(=O)N=C1N1CCCN(C(=O)C2CCCO2)CC1 (centres undefined)
20,666,CCOC(=O)c1noc2nc(C)nc(NCC3CCN(Cc4ccc(F)cc4)CC3)c12
21,731,CN(CC1(C)CCOCC1)C(=O)NCc1cccc(F)c1
22,650,O=C(NC1CC1)c1c2c(nc3ccc(F)cc13)CCC2
23,876,COc1ccccc1Cc1noc(C2CN(C(=O)c3cc(C4CC4)on3)C2)n1
24,640,COc1ccc(NC(=O)C2(C)CCCCC(=O)N2)cc1 (centres undefined)
25,605,Cc1nn(C)c(C)c1CCCN(C)C(=O)COc1ccc(NC(=O)C2CC2)cn1
26,631,O=C(C1CC1)N1CCC(F)(C(=O)NCC2CC2)CC1

# The next lines start with the compound.
row,Structure (SMILES),RP-LC retention time [s]
1,COc1cccc(CC(=O)Nc2ccc3c(c2)Sc2ncccc2C(=O)N3C)c1,762
2,O=C(Nc1ccc(F)cc1)c1cnc(-c2ccc(F)cc2)nc1-c1ccncc1,898
3,OC[C@@H]1CN(Cc2ccccn2)C[C@H]1c1nc(-c2cccnc2)no1,551
4,CCOc1ccccc1NC(=O)c1cnn(-c2ccc(Br)cc2)c1,1120
5,Cc1nnc(-c2nnc(NCc3cccc(F)c3)c3ccccc23)o1,826
6,CSc1nc2ccc(NC(=O)c3cccs3)cc2s1,837
7,Cc1cc2occ(CN(C)CCN(C)Cc3cn(-c4cccc(C(F)(F)F)c4)c4ccccc34)c(=O)c2cc1C,1090
8,CC1=NS(=O)(=O)N(Cc2ccccc2)C=C1C(=O)OCc1nc(-c2ccc(F)cc2)no1,1140
9,Cc1nc2cc(-c3noc(-c4cccc(Br)c4)n3)ccc2o1,1270
10,CCOCCCNC(=O)c1ccc(CS(=O)c2ccccc2Cl)o1 (centres undefined),704
11,CCN1C(=O)c2ccccc2Oc2ccc(C(=O)NCc3ccc(C)cc3)cc21,958
12,COc1ccccc1-c1ccc(SCC(=O)Nc2ccc3c(c2)OCCO3)nn1,792
13,CCn1cc(S(=O)(=O)Nc2cc(C)ccc2C)c2cccnc21,892
14,Cc1nc2ccccc2c(=O)n1-c1ccc(NC(=O)c2cnccn2)cc1,682
15,Cc1ccc(-c2noc(CN3N=NC4C(=O)N(c5ccc(F)c(Cl)c5)C(=O)C43)n2)cc1 (centres undefined),1090
16,CCc1nc2cc(-c3noc(-c4cccs4)n3)ccc2o1,1080
17,O=C(NCCSc1ncc(-c2ccccc2)[nH]1)NCc1cccs1,596
18,Cn1cnc2c(F)c(Nc3ccc(Br)cc3Cl)c(C(=O)NOCCO)cc21,789

row,Structure (SMILES),RP-LC retention time [s]
1,CCOc1ccc(-c2cc3c(=O)n(Cc4nc(-c5ccc(OCC)c(OC)c5)no4)ncn3n2)cc1,1150
2,Cc1ccc(CNC(=O)Cn2c(=O)c3cc(-c4cccs4)nn3c3ncccc32)cc1,868
3,CSc1ncc(Cl)c(C(=O)NCc2ccco2)n1,753
4,CCOC1CCN(C(=O)NC(C)(C)C)CC1,700
5,O=C(Cc1cccs1)Nc1cccc2ccc(-n3ccnc3)nc12,610
6,O=C1NC2(CCN(C(=O)c3ccc(F)cc3)CC2)N=C1c1ccc(Cl)cc1,872
7,COc1ccc(-c2nc(-c3ccc4c(c3)oc(=O)n4C)no2)c(OC)c1,959
8,CN(CCc1noc(-c2ccccc2)n1)C(=O)Nc1ccccc1Cl,943
9,CCNC(=O)N1CCC(c2noc(-c3cnccn3)n2)C1 (centres undefined),608
10,CSc1ccc(CNC(=O)c2ccc3nc(CCc4ccc(NC(C)=O)cc4)[nH]c3c2)cc1,663
11,COc1ncc(-c2ccc3nccc(-c4ccnnc4)c3c2)cc1NS(=O)(=O)c1ccc(F)cc1F,785
12,COc1ccc(CN2C=C(C(=O)OCc3ccccc3C)C(C)=NS2(=O)=O)cc1,1140
13,COc1ccc2nc(-c3ccc(C)c(NS(=O)(=O)c4cc(C)ccc4OC)c3)cn2n1,812
14,Cc1ccccc1S(=O)(=O)N1[C@H]2CC[C@@H]1c1cnc(-c3ccc(F)cc3)nc1C2,1210
15,COc1cc(-c2noc(CCn3nc(-c4ccc(Cl)cc4)ccc3=O)n2)cc(OC)c1OC,974
16,Cc1ccc(Nc2c(-c3cccc(Br)c3)nc3c(C)cccn23)cc1,843
17,O=C(NC1CC1)[C@@H]1C[C@H](Oc2ccccc2)CN1C(=O)c1n[nH]c2ccccc12,739
18,Nc1nc(SCC(=O)Nc2ccc(F)c(Cl)c2)n[nH]1,621
